# From paper PMC7582308, “Functional Characterization of a Dendrobium officinale Geraniol Synthase DoGES1 Involved in Floral Scent Formation” (International Journal of Molecular Sciences, 2020)
# Molecular target: T1, DoGES1 (Dendrobium officinale, UniProt A0A7H9SVV5)
# T1 construct: gene GES1
# T1 sequence (A0A7H9SVV5 1-582): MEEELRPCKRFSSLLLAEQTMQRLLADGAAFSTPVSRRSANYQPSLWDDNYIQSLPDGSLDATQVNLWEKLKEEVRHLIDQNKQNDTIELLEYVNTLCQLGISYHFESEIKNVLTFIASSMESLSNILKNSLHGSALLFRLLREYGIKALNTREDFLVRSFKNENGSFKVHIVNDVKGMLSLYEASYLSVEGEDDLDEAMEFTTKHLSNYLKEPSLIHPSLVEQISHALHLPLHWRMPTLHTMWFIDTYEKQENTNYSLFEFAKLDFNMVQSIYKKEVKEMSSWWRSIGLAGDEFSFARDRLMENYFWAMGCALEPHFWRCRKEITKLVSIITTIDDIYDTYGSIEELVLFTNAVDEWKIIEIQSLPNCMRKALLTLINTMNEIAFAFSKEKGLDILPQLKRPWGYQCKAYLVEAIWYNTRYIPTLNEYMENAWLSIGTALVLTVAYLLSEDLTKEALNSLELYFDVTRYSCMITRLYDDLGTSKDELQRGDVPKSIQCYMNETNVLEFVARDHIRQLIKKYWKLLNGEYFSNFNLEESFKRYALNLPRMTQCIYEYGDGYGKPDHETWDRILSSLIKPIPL
# Test: GC-MS detection of geraniol product
# Type: biochemical
# Conditions: 10 mM GPP, 10 mM MgCl2, 5 mM dithiothreitol, MOPSO pH 7.0, 30 °C, 1 h
structure (smiles),measurement,value
CC(C)=CCC/C(C)=C/COP(=O)(O)OP(=O)(O)O [geranyl pyrophosphate],GC-MS detection of geraniol product,"After incubation with GPP as substrate for the synthesis of monoterpenes, recombinant DoGES1 proteins successfully yielded geraniol"
